Test results from PMC5618421, “Anti-Inflammatory Effects of Curvularin-Type Metabolites from a Marine-Derived Fungal Strain Penicillium sp. SF-5859 in Lipopolysaccharide-Induced RAW264.7 Macrophages” (Marine Drugs, 2017).

Tests used:
[1] = system: NO production in LPS-treated RAW 264.7 macrophages; assay: Inhibition of NO production (nitrite, Griess reaction) in LPS-treated RAW264.7 macrophages; format: cell-based; settings: Mus musculus; RAW264.7 macrophages pre-treated 3 h with compound, then LPS (1 μg/mL) 24 h; Griess reaction
Procedure: (§1) All isolated compounds (1–9) were evaluated for their anti-inflammatory effects. […] NO is a small molecule which is an intracellular mediator produced in various immune cells. It plays a pivotal role in the physiological and pathological condition of inflammatory symptoms. PGE2 can also regulate the immune and inflammatory responses. In this study, RAW264.7 macrophages were pre-treated for 3 h in the medium containing non-toxic concentrations (Table 2) of each compound (1–9), and then LPS (1 μg/mL) was treated for 24 h. According to the LPS stimulation of RAW264.7 macrophages, production of NO and PGE2 was increased, and the effects of all compounds on the production level of NO and PGE2 were evaluated by the Griess reaction and a PGE2 kit, respectively. […] To evaluate the impact of phenol and resorcinol groups in the curvularin-type metabolites for the anti-inflammatory activity, 5-O-methyl and 5,7,-di-O-methyl derivatives of curvularin (3a and 3b, respectively), as well as 5-O-acetyl and 5,7,-di-O-acetyl derivatives of curvularin (3c and 3d, respectively), were prepared, and the structures of 3a–3d were identified by comparison the ^1H and ^13C-NMR spectroscopic data with those of curvularin (3), and confirmed by their HRESIMS. […] The position of the methoxy group in 3a was confirmed by HMBC correlation between methoxy signal at δH 3.77 (3H, s, 5-OCH3) and δC 161.8 (C-5). The NOESY cross-peaks between acetyl proton ([…]) with H-2, H-4, and H-16 of 3c were used to identify the position of the acetyl group in 3c. […] Further systematic investigations are needed to clarify the structure activity relationship associated with the modification of the aliphatic part of the molecule.
As an indicator of NO production in RAW264.7 macrophages, production of nitrite, a stable end-product of NO oxidation, was estimated. Briefly, the concentration of nitrite in the conditioned media was determined by a method based on the Griess reaction, and the details of the assay were described previously.

[2] = system: PGE2 production in LPS-treated RAW 264.7 macrophages; assay: Inhibition of PGE2 production (PGE2 ELISA kit) in LPS-treated RAW264.7 macrophages; format: cell-based; settings: Mus musculus, RAW264.7 macrophages pre-treated 3 h with compound, then LPS (1 μg/mL) 24 h
Procedure: as §1
RPMI1640, fetal bovine serum (FBS), and other tissue culture reagents were purchased from Gibco BRL Co. (Grand Island, NY, USA). All other chemicals were obtained from Sigma-Aldrich Co. (St. Louis, MO, USA). Primary antibodies (COX-2: sc-1745; iNOS: sc-650; IκB-α: sc-371; p-IκB-α: sc-8404; p50: sc-7178; p65: sc-8008, Santa Cruz Biotechnology, Dallas, TX, USA, p-ERK: #9101; ERK: #9102; p-JNK: #9251; JNK: #9252S; p-p38: #9211; p38: 9212S, Cell Signaling Technology, Danvers, MA, USA) and secondary antibodies (mouse: ap124p; goat: ap106p; rabbit: ap132p, Millipore, Billerica MA, USA). Enzyme-linked immunosorbent assay (ELISA) kits for PGE2 were purchased from R and D Systems, Inc. (Minneapolis, MN, USA).

RAW264.7 macrophages = assay: Cell viability (MTT) cytotoxic assay; format: cell-based; settings: RAW264.7 macrophages, MTT
Procedure: RAW264.7 macrophages were maintained at a density of 5 × 10^5 cells/mL in RPMI1640 medium supplemented with 10% heat-inactivated FBS, penicillin G (100 units/mL), streptomycin ([…]), and L-glutamine (2 mM), and were incubated at 37 °C in a humidified atmosphere containing 5% CO2. For determination of cell viability, cells (1 × 10^5 cells/well in 96-well plates) were incubated with 3-(4,5-dimethylthiazol-2-yl)-2,5-diphenyltetrazolium bromide (MTT) at a final concentration of 0.5 mg/mL for 3 h, and the formazan formed was dissolved in acidic 2-propanol. The optical density was measured at 540 nm with a microplate reader (BioRad, Hercules, CA, USA). The optical density of the formazan formed in control (untreated) cells was considered to represent 100% viability.

IL-1β (Il1b) = assay: RT-qPCR of IL-1β mRNA in LPS-stimulated RAW264.7 macrophages; format: cell-based; settings: pre-treated 3 h, LPS (1 μg/mL) 6 h
NF-κB (p50 and p65) = assay: Western blot of nuclear NF-κB (p50 and p65) in LPS-treated RAW264.7 macrophages; format: cell-based; settings: pre-treated 3 h, LPS (1 μg/mL) 1 h
Procedure: (§2) Figure 3 Effects of 8 on NF-κB activation (nuclear-p50 and p65) (a), IκBα phosphorylation and degradation (b), and the DNA binding activity of NF-κB (c) in LPS-treated RAW264.7 macrophages. Cells were pre-treated with the indicated concentrations of 8 for 3 h and stimulated with LPS (1 μg/mL) for 1 h. Western blot analysis (IκBα and p-IκBα in the cytoplasm and NF-κB in the nucleus) was performed as described in the Materials and Methods. Representative blots from three independent experiments are shown. A commercially-available NF-κB ELISA kit (Active Motif) was used to test the nuclear extracts and determine the degree of NF-κB binding. The data shown represent the mean values of three independent experiments. * p < 0.05 compared with the group treated with LPS.
(§3) The proteins of iNOS, COX-2, NF-κB, and MAPKs were measured by Western blot analysis. The details of procedures for Western blot analysis were described previously.
The proteins of nuclear NF-κB (p50 and p65) and cytosolic IκBα (p-IκBα and IκBα) were obtained by using cytosolic and nuclear fractions. The details of this procedure have been described previously.

NF-κB = assay: DNA binding activity of NF-κB in nuclear extracts (TransAM ELISA kit); format: cell-based; settings: pre-treated 3 h, LPS (1 μg/mL) 1 h
Procedure: as §2
TransAM kit (Active Motif, Carlsbad, CA, USA) was used to estimate the DNA-binding activity of NF-κB in the nuclear extract according to the manufacturer’s instructions as described previously.

p38 = assay: Western blot of p38 phosphorylation in LPS-treated RAW264.7 macrophages; format: cell-based; settings: pre-treated 3 h, LPS (1 μg/mL) 30 min
Procedure: (§4) Figure 4 Effects of 8 on p38 (a), JNK (b), and ERK (c) phosphorylation in RAW264.7 macrophages. Cells were pre-treated with the indicated concentrations of 8 for 3 h and stimulated for 30 min with LPS (1 μg/mL). Cell extracts were subjected to Western blotting with antibodies specific for phosphorylated-p38 (p-p38), phosphorylated JNK (p-JNK), or phosphorylated ERK1/2 (p-ERK). Membranes were stripped and re-probed to measure the total abundance of each MAPK as a control measurement. Representative blots from three independent experiments are shown.
as §3

[3] = system: c-Jun N-terminal kinase (JNK); assay: Western blot of JNK phosphorylation in LPS-treated RAW264.7 macrophages; format: cell-based; settings: pre-treated 3 h, LPS (1 μg/mL) 30 min
Procedure: as §4, §3

p97 = system: p97; set-up: method as in PMID 27223265; settings: interfering with its ATPase activity; cited from earlier work

## C[C@H]1CCC/C=C/C(=O)c2c(O)cc(O)cc2CC(=O)O1 [Compound 8, (10E,15S)-10,11-dehydrocurvularin]
[1]
  IC50: 1900 ± 300 nM
[2]
  IC50: 2700 ± 400 nM
RAW264.7 macrophages
  Cytotoxicity (the maximum concentration not affecting cell viability): 20 µM
IL-1β (Il1b)
  mRNA expression of IL-1β: markedly suppressed the mRNA expression of IL-1β, IL-6, and TNF-α in a dose-dependent manner
NF-κB (p50 and p65)
  nuclear translocation of p50 and p65: clearly suppressed the nuclear translocation of p50 and p65 in a dose-dependent manner
NF-κB
  LPS-induced DNA binding activity of NF-κB: declined
p38
  LPS-induced phosphorylation of p38: did not suppress these phosphorylations
[3]
  LPS-induced phosphorylation of JNK: did not suppress these phosphorylations
p97
  inhibition of p97: covalent inhibitor of p97
